# Test results as given in PubChem BioAssay AID1963432 (Molecular Pharmacology Branch, DTP, NCI, 2024).
# Test system: SYO-1 complex spheroid growth, percent test/control
# Assay: Anticancer human tumor SYO-1 cell line growth inhibition [Asc];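 also: compound exposure lasted 7 days after spheroids grew 3 days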;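 as to viability, T/C: 100% = DMSO vehicle control viability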
# Conditions: for IC50: curve of first compound; for viability, T/C: stronger effect = lower value
# Procedure, shortened: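 Spheroid model: tumor line + HUVEC + hMSC. Single agents and combinations; top conc. at/near clinical Cmax (10 microM if undetermined), half-log dilutions. DMSO stocks at 800-fold test concentration.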
# [1] = second compound 0.0316 µM, first compound 0.00949 µM
# [2] = second compound 0.0316 µM, first compound 0.03 µM
# [3] = second compound 0.0316 µM, first compound 0.0949 µM
# [4] = second compound 0.0316 µM, first compound 0.3 µM
# [5] = second compound 0.0316 µM, first compound 0.949 µM
# [6] = second compound 0.0316 µM, first compound 3 µM
# [7] = second compound 0.1 µM, first compound 0.00949 µM
# [8] = second compound 0.1 µM, first compound 0.03 µM
# [9] = second compound 0.1 µM, first compound 0.0949 µM
# [10] = second compound 0.1 µM, first compound 0.3 µM
# [11] = second compound 0.1 µM, first compound 0.949 µM
# [12] = second compound 0.1 µM, first compound 3 µM
# [13] = second compound 0.316 µM, first compound 0.00949 µM
# [14] = second compound 0.316 µM, first compound 0.03 µM
# [15] = second compound 0.316 µM, first compound 0.0949 µM
# [16] = second compound 0.316 µM, first compound 0.3 µM
# [17] = second compound 0.316 µM, first compound 0.949 µM
# [18] = second compound 0.316 µM, first compound 3 µM
# [19] = second compound 1 µM, first compound 0.00949 µM
# [20] = second compound 1 µM, first compound 0.03 µM
# [21] = second compound 1 µM, first compound 0.0949 µM
# [22] = second compound 1 µM, first compound 0.3 µM
# [23] = second compound 1 µM, first compound 0.949 µM
# [24] = second compound 1 µM, first compound 3 µM
compound,measurement,setting,value
O=C(c1cc(Cc2n[nH]c(=O)c3ccccc23)ccc1F)N1CCN(C(=O)C2CC2)CC1 + CCN1C(C(=O)NC23CCC(C(=O)O)(CC2)CC3)C(c2cccc(Cl)c2F)C2(C(=O)Nc3cc(Cl)ccc32)C12CCCCC2,IC50,second compound 0.00949 µM,1840 nM
same,IC50,second compound 0.03 µM,1130 nM
same,IC50,second compound 0.0949 µM,155 nM
same,IC50,second compound 0.3 µM,< 31.6 nM
same,IC50,second compound 0.949 µM,< 31.6 nM
same,IC50,second compound 3 µM,< 31.6 nM
same,"viability, T/C","second compound 0.00949 µM, first compound 0.0316 µM",104%
same,"viability, T/C","second compound 0.00949 µM, first compound 0.1 µM",93.4%
same,"viability, T/C","second compound 0.00949 µM, first compound 0.316 µM",99.4%
same,"viability, T/C","second compound 0.00949 µM, first compound 1 µM",92%
same,"viability, T/C","second compound 0.00949 µM, first compound 3.16 µM",12.9%
same,"viability, T/C","second compound 0.00949 µM, first compound 10 µM",4.28%
same,"viability, T/C","second compound 0.03 µM, first compound 0.0316 µM",102%
same,"viability, T/C","second compound 0.03 µM, first compound 0.1 µM",89.3%
same,"viability, T/C","second compound 0.03 µM, first compound 0.316 µM",92.4%
same,"viability, T/C","second compound 0.03 µM, first compound 1 µM",55.2%
same,"viability, T/C","second compound 0.03 µM, first compound 3.16 µM",6.53%
same,"viability, T/C","second compound 0.03 µM, first compound 10 µM",4.33%
same,"viability, T/C","second compound 0.0949 µM, first compound 0.0316 µM",71.7%
same,"viability, T/C","second compound 0.0949 µM, first compound 0.1 µM",54.1%
same,"viability, T/C","second compound 0.0949 µM, first compound 0.316 µM",40.9%
same,"viability, T/C","second compound 0.0949 µM, first compound 1 µM",12.4%
same,"viability, T/C","second compound 0.0949 µM, first compound 3.16 µM",4.71%
same,"viability, T/C","second compound 0.0949 µM, first compound 10 µM",3.12%
same,"viability, T/C","second compound 0.3 µM, first compound 0.0316 µM",9.88%
same,"viability, T/C","second compound 0.3 µM, first compound 0.1 µM",9.34%
same,"viability, T/C","second compound 0.3 µM, first compound 0.316 µM",8.44%
same,"viability, T/C","second compound 0.3 µM, first compound 1 µM",4.25%
same,"viability, T/C","second compound 0.3 µM, first compound 3.16 µM",4.23%
same,"viability, T/C","second compound 0.3 µM, first compound 10 µM",2.9%
same,"viability, T/C","second compound 0.949 µM, first compound 0.0316 µM",1.89%
same,"viability, T/C","second compound 0.949 µM, first compound 0.1 µM",1.57%
same,"viability, T/C","second compound 0.949 µM, first compound 0.316 µM",3.08%
same,"viability, T/C","second compound 0.949 µM, first compound 1 µM",2.92%
same,"viability, T/C","second compound 0.949 µM, first compound 3.16 µM",2.34%
same,"viability, T/C","second compound 0.949 µM, first compound 10 µM",1.51%
same,"viability, T/C","second compound 3 µM, first compound 0.0316 µM",1.11%
same,"viability, T/C","second compound 3 µM, first compound 0.1 µM",1.24%
same,"viability, T/C","second compound 3 µM, first compound 0.316 µM",2.68%
same,"viability, T/C","second compound 3 µM, first compound 1 µM",1.1%
same,"viability, T/C","second compound 3 µM, first compound 3.16 µM",1.22%
same,"viability, T/C","second compound 3 µM, first compound 10 µM",1%
CCN1C(C(=O)NC23CCC(C(=O)O)(CC2)CC3)C(c2cccc(Cl)c2F)C2(C(=O)Nc3cc(Cl)ccc32)C12CCCCC2 (centres undefined) + CNC(C)C(=O)NC1CN(S(=O)(=O)c2cccc(S(=O)(=O)N3CCC4CCC(C(=O)NC(c5ccccc5)c5ccccc5)N4C(=O)C(NC(=O)C(C)NC)C3)c2)CCC2CCC(C(=O)NC(c3ccccc3)c3ccccc3)N2C1=O,IC50,second compound 0.01 µM,146 nM
same,IC50,second compound 0.0316 µM,120 nM
same,IC50,second compound 0.1 µM,110 nM
same,IC50,second compound 0.316 µM,115 nM
same,IC50,second compound 1 µM,94.9 nM
same,"viability, T/C","second compound 0.01 µM, first compound 0.00949 µM",104%
same,"viability, T/C","second compound 0.01 µM, first compound 0.03 µM",95%
same,"viability, T/C","second compound 0.01 µM, first compound 0.0949 µM",71.8%
same,"viability, T/C","second compound 0.01 µM, first compound 0.3 µM",13.8%
same,"viability, T/C","second compound 0.01 µM, first compound 0.949 µM",1.75%
same,"viability, T/C","second compound 0.01 µM, first compound 3 µM",0.88%
same,"viability, T/C",[1],98.9%
same,"viability, T/C",[2],96.6%
same,"viability, T/C",[3],60.3%
same,"viability, T/C",[4],9.46%
same,"viability, T/C",[5],1.09%
same,"viability, T/C",[6],0.76%
same,"viability, T/C",[7],99.2%
same,"viability, T/C",[8],90.2%
same,"viability, T/C",[9],56.5%
same,"viability, T/C",[10],10.5%
same,"viability, T/C",[11],0.93%
same,"viability, T/C",[12],0.63%
same,"viability, T/C",[13],102%
same,"viability, T/C",[14],89.8%
same,"viability, T/C",[15],59.6%
same,"viability, T/C",[16],8.45%
same,"viability, T/C",[17],0.85%
same,"viability, T/C",[18],0.95%
same,"viability, T/C",[19],112%
same,"viability, T/C",[20],88.9%
same,"viability, T/C",[21],54.7%
same,"viability, T/C",[22],5.93%
same,"viability, T/C",[23],0.81%
same,"viability, T/C",[24],0.72%
CCN1C(C(=O)NC23CCC(C(=O)O)(CC2)CC3)C(c2cccc(Cl)c2F)C2(C(=O)Nc3cc(Cl)ccc32)C12CCCCC2 (centres undefined) + Cc1c(S(C)(=O)=O)c(-c2cc(F)cc(N3CCN(c4ccc(NS(=O)(=O)c5ccc(NC(CCN6CCC(C(=O)OCCCP(=O)(O)O)CC6)CSc6ccccc6)c(S(=O)(=O)C(F)(F)F)c5)cc4)CC3)c2)c(-c2ccc(Cl)cc2)n1C(C)C,IC50,second compound 0.0316 µM,131 nM
same,IC50,second compound 0.1 µM,127 nM
same,IC50,second compound 0.316 µM,90.6 nM
same,IC50,second compound 1 µM,64.8 nM
same,IC50,second compound 3.16 µM,44.3 nM
same,IC50,second compound 10 µM,35.7 nM
same,"viability, T/C",[1],97.6%
same,"viability, T/C",[2],88.5%
same,"viability, T/C",[3],65%
same,"viability, T/C",[4],13.6%
same,"viability, T/C",[5],2.07%
same,"viability, T/C",[6],0.87%
same,"viability, T/C",[7],91.7%
same,"viability, T/C",[8],80.9%
same,"viability, T/C",[9],64.2%
same,"viability, T/C",[10],10.4%
same,"viability, T/C",[11],1.25%
same,"viability, T/C",[12],0.54%
same,"viability, T/C",[13],86.6%
same,"viability, T/C",[14],78.7%
same,"viability, T/C",[15],49.5%
same,"viability, T/C",[16],4.49%
same,"viability, T/C",[17],0.85%
same,"viability, T/C",[18],0.62%
same,"viability, T/C",[19],87.4%
same,"viability, T/C",[20],77.6%
same,"viability, T/C",[21],36.4%
same,"viability, T/C",[22],4.69%
same,"viability, T/C",[23],0.8%
same,"viability, T/C",[24],0.39%
same,"viability, T/C","second compound 3.16 µM, first compound 0.00949 µM",77.5%
same,"viability, T/C","second compound 3.16 µM, first compound 0.03 µM",63.4%
same,"viability, T/C","second compound 3.16 µM, first compound 0.0949 µM",23.8%
same,"viability, T/C","second compound 3.16 µM, first compound 0.3 µM",2.4%
same,"viability, T/C","second compound 3.16 µM, first compound 0.949 µM",0.61%
same,"viability, T/C","second compound 3.16 µM, first compound 3 µM",0.43%
same,"viability, T/C","second compound 10 µM, first compound 0.00949 µM",75.9%
same,"viability, T/C","second compound 10 µM, first compound 0.03 µM",56.7%
same,"viability, T/C","second compound 10 µM, first compound 0.0949 µM",12.4%
same,"viability, T/C","second compound 10 µM, first compound 0.3 µM",2.09%
same,"viability, T/C","second compound 10 µM, first compound 0.949 µM",0.69%
same,"viability, T/C","second compound 10 µM, first compound 3 µM",0.46%
